Assay results from patent US20100003246A1, “Novel heterocyclic compounds and uses therof” (priority 2008, published 2010).

biological target: T1, b-Raf(V600E) (Homo sapiens, UniProt P15056, V600E); experiment: Raf/Mek Amplified Luminescence Proximity Homogeneous Assay (Alpha Screen), b-Raf(V600E); format: biochemical; settings: mutant b-Raf(V600E), read-out: mut-b-RAF (IC50 in uM)
T1 construct: made in house
Experimental: Assay buffer: 50 mM Tris, pH 7.5, 15 mM MgCl2, 0.01% BSA, 1 mM DTT Stop buffer: 60 mM EDTA, 0.01% Tween20 Bead buffer: 50 mM Tris, pH 7.5, 0.01% Tween20
b-Raf(V600E), active: Recombinant in-house material biotinylated Mek, kinase dead: Recombinant in-house material Alpha Screen detection kit PerkinElmer, #6760617R Anti phospho-MEK½ Cell signaling #9121 384 well assay plates: White Greiner plates, #781207
b-Raf(V600E) approximately 4 pM c-Raf approximately 4 nM biotinylated Mek, Kinase dead approximately 10 nM
Pre-incubation time with compounds 60 min at room temperature Reaction time 1 or 3 hours at room temperature
Raf and biotinylated Mek, kinase dead, were combined at 2× final concentrations in assay buffer (50 mM Tris, pH 7.5, 15 mM MgCl2, 0.01% BSA and 1 mM DTT) and dispensed 10 μl per well in assay plates (Greiner white 384 well assay plates #781207) containing 0.5 μl of 40× of a raf kinase inhibitor test compound diluted in 100% DMSO. The plate was incubated for 60 min at room temperature.
The Raf kinase activity reaction was started by the addition of 10 μl per well of 2×ATP diluted in assay buffer. After 3 hours (bRaf(V600E)) or 1 hour (c-Raf), the reactions were stopped with the addition of 10 μl of stop reagent (60 mM EDTA). Phosphorylated product was measured using a rabbit anti-p-MEK (Cell Signaling, #9121) antibody and the Alpha Screen IgG (Protein A) detection Kit (PerkinElmer #6760617R), by the addition of 30 μL to the well of a mixture of the antibody (1:2000 dilution) and detection beads (1:2000 dilution of both beads) in bead buffer (50 mM Tris, pH 7.5, 0.01% Tween20). The additions were carried out under dark conditions to protect the detection beads from light. A lid was placed on top of the plate and incubated for 1 hour at room temperature, then the luminescence was read on a PerkinElmer Envision instrument. The concentration of each compound for 50% inhibition (IC50) was calculated by non-linear regression using XL Fit data analysis software.
The Raf/Mek Amplified Luminescence Proximity Homogeneous Assay described was used to generate the luminescence and mutant b-Raf(V600E) IC50 data for selected Raf Kinase Inhibitors shown in Table 1 above.

T1 sequence (P15056 whole entry V600E): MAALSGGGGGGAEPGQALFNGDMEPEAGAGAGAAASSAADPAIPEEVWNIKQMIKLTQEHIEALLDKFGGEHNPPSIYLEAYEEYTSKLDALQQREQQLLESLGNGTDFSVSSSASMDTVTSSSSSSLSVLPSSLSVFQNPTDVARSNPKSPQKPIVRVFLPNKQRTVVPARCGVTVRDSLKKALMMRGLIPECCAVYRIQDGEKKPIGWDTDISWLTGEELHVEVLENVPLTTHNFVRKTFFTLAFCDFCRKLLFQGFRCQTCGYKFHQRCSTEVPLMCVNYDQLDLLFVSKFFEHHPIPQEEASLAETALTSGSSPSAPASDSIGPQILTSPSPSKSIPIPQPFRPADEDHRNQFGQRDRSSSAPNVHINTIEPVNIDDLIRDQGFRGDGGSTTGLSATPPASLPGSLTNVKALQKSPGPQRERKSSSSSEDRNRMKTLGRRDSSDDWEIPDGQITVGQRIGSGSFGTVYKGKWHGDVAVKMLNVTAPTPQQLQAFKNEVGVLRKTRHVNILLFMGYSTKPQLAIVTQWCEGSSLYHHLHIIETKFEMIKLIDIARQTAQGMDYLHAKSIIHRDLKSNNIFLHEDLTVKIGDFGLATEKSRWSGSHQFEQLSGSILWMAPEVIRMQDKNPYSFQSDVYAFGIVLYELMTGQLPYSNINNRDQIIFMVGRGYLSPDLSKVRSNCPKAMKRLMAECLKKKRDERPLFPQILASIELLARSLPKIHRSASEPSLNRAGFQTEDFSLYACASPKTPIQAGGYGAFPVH

Structure (SMILES) | IC50
COc1cc(-c2[nH]c(-c3ccccc3)nc2-c2ccnc(NCCNC(C)=O)n2)cnc1N [Compound 67, N-(2-(4-(5-(6-amino-5-methoxypyridin-3-yl)-2-phenyl-1H-imidazol-4-yl)pyrimidin-2-ylamino)ethyl)acetamide] | 0.0001 µM
COCC(=O)NCCNc1nccc(-c2nc(-c3ccccc3)[nH]c2-c2cnc(N)c(OC)c2)n1 [Compound 68, N-(2-(4-(5-(6-amino-5-methoxypyridin-3-yl)-2-phenyl-1H-imidazol-4-yl)pyrimidin-2-ylamino)ethyl)-2-methoxyacetamide] | 0.0001 µM
COc1ccc(-c2nc(-c3ccncc3)c(-c3cnc(N)c(OC)c3)[nH]2)cc1 [Compound 69, 3-methoxy-5-(2-(4-methoxyphenyl)-4-(pyridin-4-yl)-1H-imidazol-5-yl)pyridin-2-amine] | 0.0003 µM
COc1cc(-c2[nH]c(-c3ccccc3)nc2-c2ccnc(NCCNS(=O)(=O)c3ccc(Cl)cc3)n2)cnc1N [Compound 70, N-(2-(4-(5-(6-amino-5-methoxypyridin-3-yl)-2-phenyl-1H-imidazol-4-yl)pyrimidin-2-ylamino)ethyl)-4-chlorobenzenesulfonamide] | 0.0004 µM
COc1cc(-c2[nH]c(-c3ccc(O)cc3)nc2-c2ccncc2)cnc1N [Compound 71, 4-(5-(6-amino-5-methoxypyridin-3-yl)-4-(pyridin-4-yl)-1H-imidazol-2-yl)phenol] | 0.0003 µM
COc1cc(-c2nc(-c3ccccc3)[nH]c2-c2ccnc(NC3CC3)n2)cnc1N [Compound 72, 4-(4-(6-amino-5-methoxypyridin-3-yl)-2-phenyl-1H-imidazol-5-yl)-N-cyclopropylpyrimidin-2-amine] | 0.0016 µM
COc1cc(-c2nc(-c3ccccc3)[nH]c2-c2ccnc(N)n2)cnc1N [Compound 73, 4-(4-(6-amino-5-methoxypyridin-3-yl)-2-phenyl-1H-imidazol-5-yl)pyrimidin-2-amine] | 0.0011 µM
COc1cc(-c2nc(-c3ccccc3)[nH]c2-c2ccnc(NC[C@H](C)O)n2)cnc1N [Compound 74, (S)-1-(4-(4-(6-amino-5-methoxypyridin-3-yl)-2-phenyl-1H-imidazol-5-yl)pyrimidin-2-ylamino)propan-2-ol] | 0.0006 µM
COc1nc(-c2sc(-c3ccccc3)nc2-c2ccncc2)cnc1N [Compound 77, 3-methoxy-5-(2-phenyl-4-(pyridin-4-yl)thiazol-5-yl)pyrazin-2-amine] | 0.089 µM
COc1cc(-c2[nH]c(-c3ccccc3)nc2C2=CCOCC2)cnc1N [Compound 80, 5-(4-(3,6-dihydro-2H-pyran-4-yl)-2-phenyl-1H-imidazol-5-yl)-3-methoxypyridin-2-amine] | 0.038 µM
COc1cc(-c2nc(-c3ccccc3)[nH]c2-c2ccnc(NC(C)=O)c2)cnc1N [Compound 82, N-(4-(4-(6-amino-5-methoxypyridin-3-yl)-2-phenyl-1H-imidazol-5-yl)pyridin-2-yl)acetamide] | 0.002 µM
CNc1ncc(-c2nc(-c3ccccc3)[nH]c2-c2ccncc2)cn1 [Compound 83, N-methyl-5-(2-phenyl-5-(pyridin-4-yl)-1H-imidazol-4-yl)pyrimidin-2-amine] | 0.197 µM
FC(F)(F)c1ccc(-c2nc(-c3ccncc3)c(-c3ccncc3)[nH]2)cc1 [Compound 84, 4,4′-(2-(4-(trifluoromethyl)phenyl)-1H-imidazole-4,5-diyl)dipyridine] | 0.229 µM
N#Cc1cc(-c2[nH]c(-c3ccccc3)nc2-c2ccncc2)cnc1N [Compound 87, 2-amino-5-(2-phenyl-4-(pyridin-4-yl)-1H-imidazol-5-yl)nicotinonitrile] | 0.391 µM
COc1cc(-c2nc(-c3ccccc3)oc2-c2ccncc2)cnc1N [Compound 92, 3-methoxy-5-(2-phenyl-5-(pyridin-4-yl)oxazol-4-yl)pyridin-2-amine] | 0.0003 µM
COc1cc(-c2[nH]c(-c3ccc(F)cc3)nc2-c2ccncc2Cl)cnc1N [Compound 94, 5-(4-(3-chloropyridin-4-yl)-2-(4-fluorophenyl)-1H-imidazol-5-yl)-3-methoxypyridin-2-amine] | 0.0606 µM
COc1cc(-c2[nH]c(-c3ccc(F)cc3)nc2-c2ccnc(NC3CCN(S(=O)(=O)C4CC4)CC3)n2)cnc1N [Compound 95, 4-(5-(6-amino-5-methoxypyridin-3-yl)-2-(4-fluorophenyl)-1H-imidazol-4-yl)-N-(1-(cyclopropylsulfonyl)piper-idin-4-yl)pyrimidin-2-amine] | 0.0025 µM

The remaining compounds from weak to strong by IC50, led by results:

IC50 | Structure (SMILES)
0.537 µM | COc1cc(-c2[nH]c(-c3ccccc3)nc2-c2ccn[nH]2)cnc1N [Compound 86, 3-methoxy-5-(2-phenyl-4-(1H-pyrazol-5-yl)-1H-imidazol-5-yl)pyridin-2-amine]
0.113 µM | COc1nc(-c2oc(-c3ccccc3)nc2-c2ccncc2)cnc1N [Compound 90, 3-methoxy-5-(2-phenyl-4-(pyridin-4-yl)oxazol-5-yl)pyrazin-2-amine]
0.0599 µM | COc1cc(-c2[nH]c(-c3ccccc3)nc2-c2ccnc(N[C@@H]3CCCNC3)n2)cnc1N [Compound 65, (R)-4-(5-(6-amino-5-methoxypyridin-3-yl)-2-phenyl-1H-imidazol-4-yl)-N-(piperidin-3-yl)pyrimidin-2-amine]
0.0137 µM | COc1cc(-c2oc(-c3ccccc3)nc2-c2ccncc2)cnc1N [Compound 89, 3-methoxy-5-(2-phenyl-4-(pyridin-4-yl)oxazol-5-yl)pyridin-2-amine]
0.0044 µM | COc1cc(-c2[nH]c(-c3ccccc3)nc2-c2ccnc(N[C@@H]3CCCN(S(=O)(=O)C4CC4)C3)n2)cnc1N [Compound 91, (R)-4-(5-(6-amino-5-methoxypyridin-3-yl)-2-phenyl-1H-imidazol-4-yl)-N-(1-(cyclopropylsulfonyl)piper-idin-3-yl)pyrimidin-2-amine]
0.0038 µM | COc1cc(-c2[nH]c(-c3ccc(F)cc3)nc2-c2ccncc2F)cnc1N [Compound 93, 5-(2-(4-fluorophenyl)-4-(3-fluoropyridin-4-yl)-1H-imidazol-5-yl)-3-methoxypyridin-2-amine]
0.002 µM | COc1cc(-c2nc(-c3ccc(OC(F)(F)F)cc3)[nH]c2-c2ccncc2)cnc1N [Compound 79, 3-methoxy-5-(5-(pyridin-4-yl)-2-(4-(trifluoromethoxy)phenyl)-1H-imidazol-4-yl)pyridin-2-amine]
0.0015 µM | COc1cc(-c2[nH]c(C3CC3)nc2-c2ccncc2)cnc1N [Compound 76, 5-(2-cyclopropyl-4-(pyridin-4-yl)-1H-imidazol-5-yl)-3-methoxypyridin-2-amine]
0.0011 µM | COc1cc(-c2nc(-c3ccccc3)[nH]c2-c2ccnc(NC[C@@H](C)O)n2)cnc1N [Compound 75, (R)-1-(4-(4-(6-amino-5-methoxypyridin-3-yl)-2-phenyl-1H-imidazol-5-yl)pyrimidin-2-ylamino)propan-2-ol]
0.001 µM | COc1cc(-c2nc(-c3cc(F)cc(F)c3)[nH]c2-c2ccncc2)cnc1N [Compound 78, 5-(2-(3,5-difluorophenyl)-5-(pyridin-4-yl)-1H-imidazol-4-yl)-3-methoxypyridin-2-amine]
0.0001 µM | COc1cc(-c2[nH]c(-c3ccccc3)nc2-c2ccnc(NCCNS(=O)(=O)C3CC3)n2)cnc1N [Compound 88, N-(2-(4-(5-(6-amino-5-methoxypyridin-3-yl)-2-phenyl-1H-imidazol-4-yl)pyrimidin-2-ylamino)ethyl)cyclopro-panesulfonamide]
